The values that follow come from patent US20100098691A1, “COMBINATION OF BENZIMIDAZOLE ANTI-CANCER AGENT AND A SECOND ANTI-CANCER AGENT” (S'BIO PTE LTD, priority 2001, published 2010).

One test deals with HCT 116 (colon). In words: Human xenograft model, tumor growth inhibition. The test is classed as in vivo, female athymic nude mice. The settings on record: vehicle (Tw/MC) po qd × 14 + 5FU 50 mg/kg iv D1, 8, 15.
In another test the test system is H460 (lung). Description: Human xenograft model, tumor growth inhibition. The test is classed as in vivo, female athymic nude mice. The method, then: To assess in vivo antitumor activity in human xenograft models, female athymic nude mice, 12 to 14 weeks of age, were implanted subcutaneously in the flank with human cancer cells. When the tumors reached approximately 100 mm^3 in size, the mice were pair-matched into various treatment groups. For oral administration, compounds were dissolved in a mixture of 0.5% methylcellulose and 0.1% Tween 80 and administered by gavage to the tumor-bearing mice. For i.v.andi.p..administration, compounds were dissolved in 0.9% NaCl and for the i.v. administration, the compound was administered via the tail vein.
Percent tumor growth inhibition (% TGI) was calculated as
% TGI=(Cday a−Tday a)/(Cday a−Cday 1)×100
Where C is the median tumor volume of the control group, T is the median tumor volume of the treatment group, and day a is the day of assessment.

Procedure for HCT 116 (colon): The TGI assessment, the treatment-induced decreases in tumor volume on day 21 of various treatment groups were compared to controls. Percent tumor growth inhibition (% TGI) was calculated as

As for `O=c1[nH]cc(F)c(=O)[nH]1` [Compound 5FU, Fluorouracil], the “% TGI at Day 15” value with HCT 116 (colon) came to 34%. As to `CCCCc1nc2cc(/C=C/C(=O)NO)ccc2n1CCN(CC)CC` [Compound A8, 3-[2-Butyl-1-(2-diethylamino-ethyl)-1H-benzimidazol-5-yl]-N-hydroxy-acrylamide], the “% TGI at Day 15” value in the test with H460 (lung) (A8 50 mg/kg po qd × 14 d) is on record as 33%; in the test on H460 (lung) (A8 75 mg/kg po D1-3, D8-10), 14%.

Take `N.N.O=C([O-])C1(C(=O)[O-])CCC1.[Pt+2]` [carboplatin, Carboplatin]: the “% TGI at Day 15” value in the test with H460 (lung) (carboplatin 30 mg/kg ip D1, 8) is 29%. On to `Nc1ccn([C@@H]2O[C@H](CO)[C@@H](O)C2(F)F)c(=O)n1` [gemcitabine, Gemcitabine], for which the “% TGI at Day 15” value in the test on H460 (lung) (gemcitabine 80 mg/kg ip D1, 5, 9, 13 + vehicle po qd × 14 d) amounted to 36%.
